# The source made the active and inactive calls. The calls are words filed in the database; no cut-off is given here.
# How the values were obtained:
# cells = settings: Homo sapiens, IGROV-1, 72 h
# IGROV-1 = test: cells; settings: Homo sapiens, IGROV-1, 72 h
# [1] = biological target: T1, Protein deacetylase HDAC6 (Homo sapiens, UniProt Q9UBN7); test: Inhibition of HDAC6 (unknown origin) incubated for 1 hr by fluor de lys substrate based fluorescence method
# T1 sequence (Q9UBN7 whole entry): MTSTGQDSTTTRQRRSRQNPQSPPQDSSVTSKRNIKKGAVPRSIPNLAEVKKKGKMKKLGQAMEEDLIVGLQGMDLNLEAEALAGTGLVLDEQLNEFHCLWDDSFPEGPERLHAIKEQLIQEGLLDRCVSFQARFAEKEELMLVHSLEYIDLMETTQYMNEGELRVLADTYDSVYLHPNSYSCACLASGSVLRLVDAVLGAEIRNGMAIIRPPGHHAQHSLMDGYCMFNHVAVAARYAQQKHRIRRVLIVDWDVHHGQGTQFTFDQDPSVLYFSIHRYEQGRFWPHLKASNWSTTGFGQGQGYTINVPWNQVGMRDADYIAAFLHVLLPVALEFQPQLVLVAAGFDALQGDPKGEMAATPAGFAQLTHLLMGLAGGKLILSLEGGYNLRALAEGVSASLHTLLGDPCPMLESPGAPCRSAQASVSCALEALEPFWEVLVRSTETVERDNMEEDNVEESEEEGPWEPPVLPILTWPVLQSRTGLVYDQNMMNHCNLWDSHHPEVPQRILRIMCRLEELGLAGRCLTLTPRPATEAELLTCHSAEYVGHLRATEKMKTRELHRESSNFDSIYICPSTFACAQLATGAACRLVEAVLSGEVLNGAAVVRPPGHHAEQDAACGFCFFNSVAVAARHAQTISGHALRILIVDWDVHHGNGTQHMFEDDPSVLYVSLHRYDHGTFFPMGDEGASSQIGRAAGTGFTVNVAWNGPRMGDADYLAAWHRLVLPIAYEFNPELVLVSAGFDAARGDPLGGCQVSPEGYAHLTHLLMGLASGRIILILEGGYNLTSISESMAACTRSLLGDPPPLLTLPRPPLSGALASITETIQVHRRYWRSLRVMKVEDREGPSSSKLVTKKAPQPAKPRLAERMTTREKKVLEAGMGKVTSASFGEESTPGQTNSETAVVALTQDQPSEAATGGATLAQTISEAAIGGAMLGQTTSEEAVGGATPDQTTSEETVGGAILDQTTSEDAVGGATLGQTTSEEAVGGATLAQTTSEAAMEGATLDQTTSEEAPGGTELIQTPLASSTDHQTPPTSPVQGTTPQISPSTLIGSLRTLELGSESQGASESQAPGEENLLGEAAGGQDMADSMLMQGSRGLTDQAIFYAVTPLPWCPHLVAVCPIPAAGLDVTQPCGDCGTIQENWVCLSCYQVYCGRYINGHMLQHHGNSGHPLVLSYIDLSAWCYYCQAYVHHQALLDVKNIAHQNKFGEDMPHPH
# Histone deacetylase 8 = biological target: T2, Histone deacetylase 8 (Homo sapiens, UniProt Q9BY41); test: Inhibition of HDAC8 (unknown origin) incubated for 1 hr by fluor de lys substrate based fluorescence method
# T2 sequence (Q9BY41 whole entry): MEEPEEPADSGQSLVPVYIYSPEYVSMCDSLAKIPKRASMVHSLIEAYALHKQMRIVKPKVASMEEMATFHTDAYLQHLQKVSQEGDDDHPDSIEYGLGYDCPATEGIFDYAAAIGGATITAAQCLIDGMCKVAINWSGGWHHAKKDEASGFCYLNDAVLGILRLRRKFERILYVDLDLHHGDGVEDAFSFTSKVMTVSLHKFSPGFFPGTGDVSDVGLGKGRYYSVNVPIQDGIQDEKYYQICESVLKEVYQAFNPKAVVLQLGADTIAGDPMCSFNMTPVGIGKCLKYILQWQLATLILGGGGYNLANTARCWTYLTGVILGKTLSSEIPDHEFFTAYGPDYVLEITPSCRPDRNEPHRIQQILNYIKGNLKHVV
# Histone deacetylase 1 = Histone deacetylase 1 (Homo sapiens, UniProt Q13547); test: Inhibition of HDAC1 (unknown origin) incubated for 1 hr by fluor de lys substrate based fluorescence method
# Histone deacetylase 1, sequence (Q13547 whole entry): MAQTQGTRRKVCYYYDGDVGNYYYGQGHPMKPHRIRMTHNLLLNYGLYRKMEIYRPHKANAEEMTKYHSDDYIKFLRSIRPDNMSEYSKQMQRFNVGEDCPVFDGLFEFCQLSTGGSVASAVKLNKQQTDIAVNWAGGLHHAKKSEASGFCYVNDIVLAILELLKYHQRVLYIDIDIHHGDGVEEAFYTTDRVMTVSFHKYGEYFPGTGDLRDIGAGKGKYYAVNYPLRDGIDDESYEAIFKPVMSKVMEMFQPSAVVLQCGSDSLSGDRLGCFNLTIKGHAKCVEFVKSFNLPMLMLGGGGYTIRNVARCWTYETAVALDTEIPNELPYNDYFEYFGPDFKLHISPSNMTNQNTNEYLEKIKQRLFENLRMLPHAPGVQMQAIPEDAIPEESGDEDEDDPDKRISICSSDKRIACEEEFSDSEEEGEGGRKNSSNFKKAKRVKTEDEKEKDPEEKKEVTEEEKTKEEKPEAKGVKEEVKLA
# HCT-116 = test: Antitumor activity against human HCT116 cells xenografted in Swiss mouse assessed as tumor growth inhibition at 10 mg/kg, ip dosed starting day 1 post tumor implantation and repeated every 7 days for 4 times; format: functional, organism-based
# Mus musculus = test: Toxicity in human HCT116 cells xenografted Swiss mouse at 10 mg/kg, ip dosed starting day 1 post tumor implantation and repeated every 7 days for 4 times; format: organism-based, HCT-116; settings: in vivo, 168 h
IC50 (cells),IC50 (IGROV-1),IC50 [1],IC50 (Histone deacetylase 8),IC50 (Histone deacetylase 1),Compound,TGI (HCT-116),Activity (Mus musculus)
1500 nM,7000 nM,,,,CC(C)[C@H]1NC(=O)C[C@H]2/C=C/CCSSC[C@@H](NC1=O)C(=O)NC1CCC(CC1)C(=O)O2,,
2500 nM,2000 nM,,,,CC(C)[C@H]1NC(=O)C[C@H]2/C=C/CCSSC[C@@H](NC1=O)C(=O)NCc1cc(Br)ccc1CC(=O)O2,,
9 nM,230 nM,18300 nM,14300 nM,1270 nM,CCCCCCCC(=O)SCC/C=C/[C@@H]1CC(=O)N[C@H](C(C)C)C(=O)N[C@H](C)C(=O)N[C@H](C(C)C)C(=O)NCC(=O)O1,,
> 10000 nM,> 10000 nM,,,,CC(C)[C@H]1NC(=O)C[C@H]2/C=C/CCSSC[C@@H](NC1=O)C(=O)Nc1ccccc1C(=O)NCC(=O)O2,,
15 nM,25 nM,,,,C=C(C)[C@H]1NC(=O)[C@H]2CSSCC/C=C/[C@H](CC(=O)N[C@H](C)C(=O)N2)OC(=O)C[C@@H]1O [SPIRUCHOSTATIN A],,
> 10000 nM,> 10000 nM,,,,CC(C)[C@H]1NC(=O)C[C@H]2/C=C/CCSSC[C@@H](NC1=O)C(=O)N1CCC(CC1)CC(=O)O2,,
780 nM,2810 nM,,,,CC(C)[C@H]1NC(=O)C[C@H]2/C=C/CCSSC[C@@H](NC1=O)C(=O)NCc1[nH]c3ccccc3c1CC(=O)O2,,
470 nM,3500 nM,,,,CC(C)[C@H]1NC(=O)C[C@H]2/C=C/CCSSC[C@@H](NC1=O)C(=O)NCc1ccc(Cl)cc1CC(=O)O2,,
30 nM,700 nM,8900 nM,8010 nM,820 nM,CCCCCCCCSSCC/C=C/[C@@H]1CC(=O)N[C@H](C(C)C)C(=O)N[C@H](C)C(=O)N[C@H](C(C)C)C(=O)NCC(=O)O1,,
190 nM,3100 nM,8670 nM,1800 nM,1050 nM,CC(=O)SCC/C=C/[C@@H]1CC(=O)N[C@H](C(C)C)C(=O)N[C@H](Cc2ccccc2)C(=O)N[C@H](C(C)C)c2cn(nn2)CC(=O)O1,,
2200 nM,> 10000 nM,,,,CC(=O)SCC/C=C/[C@@H]1CC(=O)N[C@H](C(C)C)C(=O)N[C@H](Cc2ccc(O)cc2)C(=O)N[C@H](C(C)C)c2cn(nn2)CC(=O)O1,,
110 nM,400 nM,,,,CC(C)[C@H]1NC(=O)C[C@H]2/C=C/CCSSC[C@@H](NC1=O)C(=O)N[C@H](C(C)C)c1cn(nn1)CC(=O)O2,,
200 nM,600 nM,,,,CC(C)[C@H]1NC(=O)C[C@H]2/C=C/CCSSC[C@@H](NC1=O)C(=O)NCc1cc(-c3ccccc3)ccc1CC(=O)O2,Active,Non-toxic
1500 nM,10600 nM,9890 nM,1620 nM,1040 nM,CC(=O)SCC/C=C/[C@@H]1CC(=O)N[C@H](C(C)C)C(=O)N[C@H](Cc2cn(C)cn2)C(=O)N[C@H](C(C)C)c2cn(nn2)CC(=O)O1,,
> 10000 nM,> 10000 nM,,,,CC(C)[C@H]1NC(=O)C[C@H]2/C=C/CCSSC[C@@H](NC1=O)C(=O)N(C)Cc1ccccc1CC(=O)O2,,
380 nM,2750 nM,,,,CC(C)[C@H]1NC(=O)C[C@H]2/C=C/CCSSC[C@@H](NC1=O)C(=O)NCc1ccc(Br)cc1CC(=O)O2,,
120 nM,970 nM,,,,CC(=O)SCC/C=C/[C@@H]1CC(=O)N[C@H](Cc2ccccc2)C(=O)N[C@H](C)C(=O)N[C@H](C(C)C)c2cn(nn2)CC(=O)O1,,
400 nM,2500 nM,,,,CC(C)[C@H]1NC(=O)C[C@H]2/C=C/CCSSC[C@@H](NC1=O)C(=O)NCc1ccccc1CC(=O)O2,,
11000 nM,3300 nM,,,,CC(C)[C@@H]1NC(=O)CC(=O)O[C@@H]2/C=C/CCSSC[C@@H](NC(=O)[C@@H](C(C)C)NC(=O)C2)C(=O)N1,,
270 nM,6000 nM,,,,CC[C@H]1NC(=O)[C@@H](C(C)C)NC(=O)C[C@@H](/C=C/CCSC(C)=O)OC(=O)CNC(=O)[C@@H](C(C)C)NC1=O,,
180 nM,510 nM,,,,CC(C)[C@H]1NC(=O)C[C@H]2/C=C/CCSSC[C@@H](NC1=O)C(=O)NCc1cc(OC(F)(F)F)ccc1CC(=O)O2,,
> 10000 nM,> 10000 nM,,,,CC(C)[C@H]1NC(=O)C[C@H]2/C=C/CCSSC[C@@H](NC1=O)C(=O)Nc1cccc(c1)CC(=O)O2,,

# Source: ChEMBL document CHEMBL3627628, “New macrocyclic analogs of the natural histone deacetylase inhibitor FK228; design, synthesis and preliminary biological evaluation” (Bioorg Med Chem, 2015)
